Experimental data: US10456405B2, “Nitric oxide-releasing prodrug molecule of substituted quinazolines” (ZHEJIANG HUAHAI PHARMACEUTICAL CO., LTD, priority 2015, dated 2019)

Assays:
[1] = Release of HNO (headspace gas chromatography of nitrous oxide); settings: for Molar Quantities of N2O/Sample: PBS pH 7.4, 37° C., argon, 90 min
Procedure: Experiment 2. Experimental study on the tested compounds for releasing HNO HNO rapidly dimerizes and dehydrates to produce nitrous oxide in aqueous solution. In the experiment of detecting HNO, gas chromatographic headspace analysis is generally used to determine the amount of the released nitrous oxide, thereby indirectly detect the level of releasing HNO of the compound.
Experimental procedure: Each of the tested compounds was prepared to 20 mg/mL of mother liquor with DMF. Prior to the start of the experiment, 50 μL of drug mother liquor was placed into a 20 mL headspace sample vial. The tested compound was diluted by adding 5 mL of PBS buffer with pH 7.4. The temperature of the resulting sample was kept at 37° C. under argon gas for 90 min. Then the top gas was extracted for gas chromatographic analysis of nitrous oxide by using Angeli's Salt as a positive compound in the experiment.

[2] = Release of nitric oxide in vitro (Griess reagent, nitrite); settings: for Amount of Released No: 10^−4 mol/L tested substance, phosphate buffer pH 7.4, cysteine 5 mmol/L, 37° C., 1 h, as nitrite
Procedure: Experiment 1. Experimental Study on the Tested Compounds for Releasing Nitric Oxide in vitro
Experimental Procedure: • (1) Preparation of Griess Reagent: 4 g of aminobenzenesulfonamide, 0.2 g of N-naphthyl ethylene diamine hydrochloride, and 10 mL of 85% phosphoric acid solution were taken to form a solution, which is diluted to 100 mL with distilled water. • (2) Plotting of the standard curve: a serie of standard solution of 0.01, 0.03, 0.05, 0.07, 0.09, 0.2, 0.4 μg/mL of nitrite nitrogen was prepared, 10 mL of each was taken to sufficiently mix with 2.5 mL of Griess reagent, standing at room temperature for 10 min, and its absorbance value at the wavelength of 540 nm was measured. The standard curve was plotted based on the resulting data. • (3) Measuring the amount of the released NO of the tested drug: all of the tested substances were dissolved in dimethylsulfoxide (1 mL) firstly. Then phosphate buffer (pH 7.4) was slowly added dropwise, and shaken. The drug solution was diluted to 50 mL, allowing the buffer solution to contain excess cysteine (5 mmol/L), and the final concentration of the tested substances being 10^−4 mol/L; the solution was incubated at 37° C. 2 mL of the reaction solution was taken to mix with 500 μl of Griess reagent at 1 h respectively, standing at room temperature for 10 min. The absorbance value of the mixture at 540 nm was measured. Isosorbide mononitrate was used as a positive control, and H130 was used as a negative control. The amount of the released NO was represented by the amount of its oxidation product, nitrite (NO2^−).

[3] = Plasma stability in vitro, mouse plasma; settings: CD-1 mice plasma, 2 μM, 37° C., in % (unit assumed)
Procedure: (§1) Experimental method: The tested compounds (2 μM) were added into mouse or human plasma, and incubated at 37° C. Samples were taken at 0, 10, 30, 60 and 120 min respectively. The reaction was stopped by adding a stop agent. The mixture was sufficient shaken, and centrifuged at 4000 rpm for 10 min at 4° C. The supernatant was taken. The concentrations of the tested compounds and their metabolite (H130) in the supernatant were measured by LC-MS/MS.

[4] = Plasma stability in vitro, human plasma; settings: for Content of Tested Substance (n = 2): human plasma, 2 μM, 37° C., in % (unit assumed); for stability in human plasma: within 2 h
Procedure: as §1

db/db mice = assay: Serum NO and heart eNOS in db/db mice after oral gavage; type: in vivo; settings: blank = 100, oral gavage 150 mg/kg (isosorbide mononitrate 5 mg/kg), 1 h after administration (H101: 2 h)
Excerpt: Experimental method: 25 eight-week-old db/db mice (strain: BKS.Cg−+Leprdb/+leprdb/JclSlac; grade: SPF; gender: male; source: Shanghai SLAC Laboratory Animal Co., Ltd.) were selected. 3 of them were selected as the blank administration control. 2 mice were used as the positive drug control (isosorbide mononitrate). The remaining 20 mice were randomly divided into 5 groups, 4 mice per group, which are H101 administration group, H111 administration group, H116 administration group, H119 administration group, and H130 administration group. The tested compounds of the positive drug control group and each administration group were dissolved in DMSO. Then PEG400 was added. The mixture was shaken and mixed thoroughly. At last, 10% of HP-β-CD was added. The mixture was shaken and mixed thoroughly. The ratio of each solvent was DMSO: PEG400:10% of HP-β-CD=5:67.5:27.5. The administration group was administered by oral gavage at the dose of 150 mg/kg. The positive drug control group was administered at the dose of 5 mg/kg. The mice in the H101 administration group were sacrificed at 2 h after the administration. The mice in the remaining administration groups were sacrificed at 1 h after the administration. The blood was collected respectively into 1.5 mL centrifuge tube, standing at room temperature for more than 30 min, and then centrifuged (3000 rpm, 10 min). The supernatant serum was aspirated, and stored at −80° C. for testing. After the blood was collected, the heart was cut with the thoracic aorta. Three parts of the heart were weighed and placed into cryovials, rapidly frozen in liquid nitrogen, and cryopreserved at −80° C. for testing. The aorta and aortic arch were weighed, rapidly frozen in liquid nitrogen, and cryopreserved at −80° C. for testing. The content of NO in the serum of the […] mice was determined by a total NO test kit (Beyotime). The content of NOS in the heart of the mice was determined with an NOS test kit (Beyotime). The content of eNOS was calculated by the difference between the measured values before and after adding the eNOS inhibitor L-NAME (Beyotime).

apoE−/− mice = assay: apoE−/− mouse atherosclerosis model, high-fat diet 10 weeks; type: in vivo
Excerpt: Experimental method: 36 eight-week-old male apoE-/- mice were selected and randomly divided into a blank administration group, an […] administration group, an […] administration group, an […] administration group, an […] administration group, and an […] administration group, 6 mice per group. The mice in each group were fed with high-fat diet for 10 weeks. At the beginning of the high-fat feeding, the mice in each group were administrated. Each tested compound was intragastric administered at the dose of 150 mg/kg twice a day. The blank administration group was given corresponding dose of saline. […] After the blood was taken, the serum, heart, and aorta were isolated. The levels of total cholesterol (TC), high density lipoprotein cholesterol (HDL-C), and low density lipoprotein cholesterol (LDL-C) in the serum of the mice in each group were measured by automatic biochemical analyzer. The ApoA1 expression level was detected with an ApoA1 kit. The content of NO in the serum of the mice was determined with a total NO test kit (Beyotime). The NOS activities of the heart, aorta, and serum were determined with an NOS test kit (Beyotime). The content of eNOS was calculated by the difference between the measured values determined before and after adding eNOS inhibitor L-NAME (Beyotime).

[5] = blank administration group = 100, 150 mg/kg twice a day, 10 weeks
[6] = serum, high-fat diet 10 weeks, intragastric 150 mg/kg twice a day

2-(N-((2-(4-(5,7-dimethoxy-4-oxo-3,4-dihydro-quinazolin-2-yl)-2,6-dimethyl-phenoxy]-ethoxy) carbonyl)oxy)sulfamoyl)-1-methyl-1H-pyridine 1-2-onium salt [Compound H122]
Molar Quantities of N2O/Sample [1]: 18.3%

3-(nitroxy)-2,2-di(nitroxymethyl) propyl 4-(2-[4-(5,7-dimethoxy-4-oxo-3,4-dihydro-quinazolin-2-yl)-2,6-dimethyl-phenoxy] butyl)-4-oxo-2-acetamino-butyrate [Compound H124]
Amount of Released No [2]: 2.89 µM

[Na+].[Na+].[O-][N+]([O-])=NO [Angeli's Salt, reference compound]
Molar Quantities of N2O/Sample [1]: 62.4%

COc1cc(OC)c2c(=O)[nH]c(-c3cc(C)c(OCCOC(=O)c4cccc(CO[N+](=O)[O-])c4)c(C)c3)nc2c1 [Compound H102, 2-[4-(5,7-dimethoxy-4-oxo-3,4-dihydro-quinazolin-2-yl)-2,6-dimethyl-phenoxy]-ethyl 3-nitroxymethyl-benzoate]
Content of Tested Substance (n = 2) ([3]; 0 min): 100.0
Content of Tested Substance (n = 2) ([3]; 10 min): 10.8
Content of Tested Substance (n = 2) ([3]; 30 min): 1.3
Content of Tested Substance (n = 2) ([3]; 60 min): 3.1
Content of Tested Substance (n = 2) ([3]; 120 min): 1.8
Content of Tested Substance (n = 2) ([4]; 0 min): 100.0
Content of Tested Substance (n = 2) ([4]; 10 min): 101.5
Content of Tested Substance (n = 2) ([4]; 30 min): 98.4
Content of Tested Substance (n = 2) ([4]; 60 min): 95.0
Content of Tested Substance (n = 2) ([4]; 120 min): 84.5
stability in human plasma [4]: good stability
time after which NO is produced [2]: ≥ 2 h
Amount of Released No [2]: -0.55 µM
NO release detected within 1 h ([2]; within 1 h): does not produce NO within 1 h

COc1cc(OC)c2c(=O)[nH]c(-c3cc(C)c(OCCOC(=O)ONS(=O)(=O)c4ccc(C)s4)c(C)c3)nc2c1 [Compound H103, N-((2-(4-(5,7-dimethoxy-4-oxo-3,4-dihydroquinazolin-2-yl)-2,6-dimethylphenoxy)ethoxy)carbonyloxy)-5-methylthiophene-2-sulfonamide]
Content of Tested Substance (n = 2) ([3]; 0 min): 100.0
Content of Tested Substance (n = 2) ([3]; 10 min): 0.0
Content of Tested Substance (n = 2) ([3]; 30 min): 0.0
Content of Tested Substance (n = 2) ([3]; 60 min): 0.0
Content of Tested Substance (n = 2) ([3]; 120 min): 0.0
Content of Tested Substance (n = 2) ([4]; 0 min): 100.0
Content of Tested Substance (n = 2) ([4]; 10 min): 97.3
Content of Tested Substance (n = 2) ([4]; 30 min): 89.6
Content of Tested Substance (n = 2) ([4]; 60 min): 83.3
Content of Tested Substance (n = 2) ([4]; 120 min): 86.9
stability in human plasma [4]: good stability
Molar Quantities of N2O/Sample [1]: 19.7%

COc1cc(OC)c2c(=O)[nH]c(-c3cc(C)c(OCCOC(=O)C(O)CC(=O)OCc4c(-c5ccccc5)no[n+]4[O-])c(C)c3)nc2c1 (centres unmarked) [Compound H113, 2-[4-(5,7-dimethoxy-4-oxo-3,4-dihydro-quinazolin-2-yl)-2,6-dimethyl-phenoxy]-ethyl (2-oxo-4-phenyl-furazan-3-yl)-methyl 2-hydroxy succinate]
Amount of Released No [2]: 45.63 µM

COc1cc(OC)c2c(=O)[nH]c(-c3cc(C)c(OCCOC(=O)/C=C/C(=O)ONS(=O)(=O)c4ccco4)c(C)c3)nc2c1 [Compound H115, 2-[4-(5,7-dimethoxy-4-oxo-3,4-dihydro-quinazolin-2-yl)-2,6-dimethyl-phenoxy]-ethyl (E)-4-((furan-2-sulfonylamino)oxy)-4-oxo-2-crotonate]
Molar Quantities of N2O/Sample [1]: 17.8%

COc1cc(OC)c2c(=O)[nH]c(-c3cc(C)c(OCCOC(=O)CCC(=O)N4CCN(CCO[N+](=O)[O-])CC4)c(C)c3)nc2c1 [Compound H117, 2-[4-(5,7-dimethoxy-4-oxo-3,4-dihydro-quinazolin-2-yl)-2,6-dimethyl-phenoxy]-ethyl 4-[4-(2-(nitroxy)ethyl)-piperazin-1-ly]-4-oxo-butyrate]
Amount of Released No [2]: 1.36 µM

COc1cc(OC)c2c(=O)[nH]c(-c3cc(C)c(OCCOC(=O)NC4COC5C(O[N+](=O)[O-])COC45)c(C)c3)nc2c1 (centres unmarked) [Compound H120, 2-[4-(5,7-dimethoxy-4-oxo-3,4-dihydro-quinazolin-2-yl)-2,6-dimethyl-phenoxy]-ethyl (6-nitroxy-hexahydrofuro[3,2-b]furan-3-yl)-carbamate]
Amount of Released No [2]: 1.32 µM

COc1cc(OC)c2c(=O)[nH]c(-c3cc(C)c(OCCOC(=O)CCC(=O)ONS(=O)(=O)c4ccc(Cl)s4)c(C)c3)nc2c1 [Compound H121, 2-[4-(5,7-dimethoxy-4-oxo-3,4-dihydro-quinazolin-2-yl)-2,6-dimethyl-phenoxy]-ethyl 4-(((5-chlorothiophene)-2-sulfonylamino)oxy)-4-oxo-butyrate]
Molar Quantities of N2O/Sample [1]: 24.6%

COc1cc(OC)c2c(=O)[nH]c(-c3cc(C)c(OCCO)c(C)c3)nc2c1 [Compound H130, 2-(4-(2-hydroxyethoxy)-3,5-dimethylphenyl)-5,7-dimethoxyquinazoline-4(3H)-one, reference compound]
Heart eNOS (db/db mice): 123%
Serum NO (db/db mice): 111%
Aorta eNOS (apoE−/− mice; [5]): 105%
ApoA1 (apoE−/− mice; [5]): 130%
Heart eNOS (apoE−/− mice; [5]): 115%
Serum NO (apoE−/− mice; [5]): 108%
Serum eNOS (apoE−/− mice; [5]): 107%
HDL-C (apoE−/− mice; [6]): 86 ± 13 mg/dL
LDL-C (apoE−/− mice; [6]): 273 ± 33 mg/dL
TC (apoE−/− mice; [6]): 1005 ± 44 mg/dL
Molar Quantities of N2O/Sample [1]: −0.15%
HNO release detected ([1]; within 1.5 h): no HNO release can be detected
Amount of Released No [2]: -1.03 µM
